Measured values reported in ChEMBL document CHEMBL5291721, “A preclinical secondary pharmacology resource illuminates target-adverse drug reaction associations of marketed drugs” (Nat Commun, 2023).
Where “and” joins values, the source holds several entries; their conditions need not be identical. Identical values can stand only once.

Legend:
Histamine H1 receptor = Histamine H1 receptor (Homo sapiens, UniProt P35367); format: functional, cell-based
Estrogen receptor [1] = molecular target: T1, Estrogen receptor (Homo sapiens, UniProt P03372); format: functional
T1 sequence (P03372 whole entry): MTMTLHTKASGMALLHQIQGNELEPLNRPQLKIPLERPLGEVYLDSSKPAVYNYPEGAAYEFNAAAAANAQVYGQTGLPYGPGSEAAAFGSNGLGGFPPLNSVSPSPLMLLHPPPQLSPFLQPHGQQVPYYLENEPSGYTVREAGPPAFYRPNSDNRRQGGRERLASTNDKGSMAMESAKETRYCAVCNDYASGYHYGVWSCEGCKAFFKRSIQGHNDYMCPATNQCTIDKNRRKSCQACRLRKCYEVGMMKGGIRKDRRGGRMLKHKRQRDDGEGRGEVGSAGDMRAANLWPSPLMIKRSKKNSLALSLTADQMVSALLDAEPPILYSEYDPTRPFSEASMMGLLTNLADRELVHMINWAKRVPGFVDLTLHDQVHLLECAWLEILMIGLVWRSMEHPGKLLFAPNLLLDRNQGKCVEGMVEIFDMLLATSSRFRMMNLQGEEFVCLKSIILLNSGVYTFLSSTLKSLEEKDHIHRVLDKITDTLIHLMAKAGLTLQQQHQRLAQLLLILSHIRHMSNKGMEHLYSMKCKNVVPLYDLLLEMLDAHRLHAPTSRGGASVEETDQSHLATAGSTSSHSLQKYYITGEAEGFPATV

Estrogen receptor [2] = molecular target: T1, Estrogen receptor; format: functional; remark: listed apart in the source
Glucocorticoid receptor [3] = molecular target: T2, Glucocorticoid receptor (Homo sapiens, UniProt P04150); format: functional
T2 sequence (P04150 whole entry): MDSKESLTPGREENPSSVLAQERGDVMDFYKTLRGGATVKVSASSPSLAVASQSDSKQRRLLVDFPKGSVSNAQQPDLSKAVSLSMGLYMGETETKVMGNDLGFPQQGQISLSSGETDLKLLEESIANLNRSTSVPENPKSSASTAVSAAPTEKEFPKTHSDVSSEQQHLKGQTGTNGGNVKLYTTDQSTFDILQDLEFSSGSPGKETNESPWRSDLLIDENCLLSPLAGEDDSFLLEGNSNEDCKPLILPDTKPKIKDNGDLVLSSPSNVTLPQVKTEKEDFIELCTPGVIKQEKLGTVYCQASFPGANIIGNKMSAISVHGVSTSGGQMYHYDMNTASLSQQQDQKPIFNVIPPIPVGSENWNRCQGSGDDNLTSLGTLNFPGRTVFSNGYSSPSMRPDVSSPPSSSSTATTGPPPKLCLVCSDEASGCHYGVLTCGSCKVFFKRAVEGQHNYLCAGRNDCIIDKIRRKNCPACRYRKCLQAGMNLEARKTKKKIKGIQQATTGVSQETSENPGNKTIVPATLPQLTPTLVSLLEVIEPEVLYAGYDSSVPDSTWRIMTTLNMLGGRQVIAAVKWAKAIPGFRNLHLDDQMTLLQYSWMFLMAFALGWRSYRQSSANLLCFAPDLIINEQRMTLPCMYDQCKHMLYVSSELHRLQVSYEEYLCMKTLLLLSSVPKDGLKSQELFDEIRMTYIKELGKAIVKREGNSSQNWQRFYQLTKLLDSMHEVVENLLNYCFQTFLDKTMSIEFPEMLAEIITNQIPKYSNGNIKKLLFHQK

Glucocorticoid receptor [4] = molecular target: T2, Glucocorticoid receptor; format: functional; remark: listed apart in the source
[5] = molecular target: Sodium channel protein type 5 subunit alpha (Homo sapiens, UniProt Q14524); format: functional, cell-based
[6] = molecular target: T3, Muscarinic acetylcholine receptor M5 (Homo sapiens, UniProt P08912)
T3 sequence (P08912 whole entry): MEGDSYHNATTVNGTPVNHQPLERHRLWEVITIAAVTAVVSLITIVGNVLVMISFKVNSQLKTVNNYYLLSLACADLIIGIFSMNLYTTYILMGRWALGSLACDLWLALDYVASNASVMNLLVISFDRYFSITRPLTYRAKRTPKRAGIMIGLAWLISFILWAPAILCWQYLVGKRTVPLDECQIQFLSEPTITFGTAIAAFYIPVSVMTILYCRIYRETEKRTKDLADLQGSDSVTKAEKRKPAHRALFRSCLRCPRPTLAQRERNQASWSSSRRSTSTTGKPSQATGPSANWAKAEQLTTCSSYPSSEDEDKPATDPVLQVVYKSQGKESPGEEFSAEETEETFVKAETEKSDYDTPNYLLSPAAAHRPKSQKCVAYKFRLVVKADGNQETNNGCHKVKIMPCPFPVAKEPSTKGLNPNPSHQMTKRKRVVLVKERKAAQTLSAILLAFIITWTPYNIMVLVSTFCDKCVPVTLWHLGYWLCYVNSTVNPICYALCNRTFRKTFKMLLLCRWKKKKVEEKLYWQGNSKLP

[7] = molecular target: Gamma-aminobutyric acid type B receptor subunit 1 (Homo sapiens, UniProt Q9UBS5)
[8] = molecular target: 5-hydroxytryptamine receptor 6 (Homo sapiens, UniProt P50406)
[9] = molecular target: 5-hydroxytryptamine receptor 7 (Homo sapiens, UniProt P34969)
Estrogen receptor beta = Estrogen receptor beta (Homo sapiens, UniProt Q92731)
Substance-P receptor = Substance-P receptor (Homo sapiens, UniProt P25103)
[10] = molecular target: Voltage-dependent L-type calcium channel subunit alpha-1C (Homo sapiens, UniProt Q13936); format: functional, cell-based
Further: assay procedure not described here.

Chain of Voltage-dependent L-type calcium channel subunit alpha-1C (Q13936 whole entry): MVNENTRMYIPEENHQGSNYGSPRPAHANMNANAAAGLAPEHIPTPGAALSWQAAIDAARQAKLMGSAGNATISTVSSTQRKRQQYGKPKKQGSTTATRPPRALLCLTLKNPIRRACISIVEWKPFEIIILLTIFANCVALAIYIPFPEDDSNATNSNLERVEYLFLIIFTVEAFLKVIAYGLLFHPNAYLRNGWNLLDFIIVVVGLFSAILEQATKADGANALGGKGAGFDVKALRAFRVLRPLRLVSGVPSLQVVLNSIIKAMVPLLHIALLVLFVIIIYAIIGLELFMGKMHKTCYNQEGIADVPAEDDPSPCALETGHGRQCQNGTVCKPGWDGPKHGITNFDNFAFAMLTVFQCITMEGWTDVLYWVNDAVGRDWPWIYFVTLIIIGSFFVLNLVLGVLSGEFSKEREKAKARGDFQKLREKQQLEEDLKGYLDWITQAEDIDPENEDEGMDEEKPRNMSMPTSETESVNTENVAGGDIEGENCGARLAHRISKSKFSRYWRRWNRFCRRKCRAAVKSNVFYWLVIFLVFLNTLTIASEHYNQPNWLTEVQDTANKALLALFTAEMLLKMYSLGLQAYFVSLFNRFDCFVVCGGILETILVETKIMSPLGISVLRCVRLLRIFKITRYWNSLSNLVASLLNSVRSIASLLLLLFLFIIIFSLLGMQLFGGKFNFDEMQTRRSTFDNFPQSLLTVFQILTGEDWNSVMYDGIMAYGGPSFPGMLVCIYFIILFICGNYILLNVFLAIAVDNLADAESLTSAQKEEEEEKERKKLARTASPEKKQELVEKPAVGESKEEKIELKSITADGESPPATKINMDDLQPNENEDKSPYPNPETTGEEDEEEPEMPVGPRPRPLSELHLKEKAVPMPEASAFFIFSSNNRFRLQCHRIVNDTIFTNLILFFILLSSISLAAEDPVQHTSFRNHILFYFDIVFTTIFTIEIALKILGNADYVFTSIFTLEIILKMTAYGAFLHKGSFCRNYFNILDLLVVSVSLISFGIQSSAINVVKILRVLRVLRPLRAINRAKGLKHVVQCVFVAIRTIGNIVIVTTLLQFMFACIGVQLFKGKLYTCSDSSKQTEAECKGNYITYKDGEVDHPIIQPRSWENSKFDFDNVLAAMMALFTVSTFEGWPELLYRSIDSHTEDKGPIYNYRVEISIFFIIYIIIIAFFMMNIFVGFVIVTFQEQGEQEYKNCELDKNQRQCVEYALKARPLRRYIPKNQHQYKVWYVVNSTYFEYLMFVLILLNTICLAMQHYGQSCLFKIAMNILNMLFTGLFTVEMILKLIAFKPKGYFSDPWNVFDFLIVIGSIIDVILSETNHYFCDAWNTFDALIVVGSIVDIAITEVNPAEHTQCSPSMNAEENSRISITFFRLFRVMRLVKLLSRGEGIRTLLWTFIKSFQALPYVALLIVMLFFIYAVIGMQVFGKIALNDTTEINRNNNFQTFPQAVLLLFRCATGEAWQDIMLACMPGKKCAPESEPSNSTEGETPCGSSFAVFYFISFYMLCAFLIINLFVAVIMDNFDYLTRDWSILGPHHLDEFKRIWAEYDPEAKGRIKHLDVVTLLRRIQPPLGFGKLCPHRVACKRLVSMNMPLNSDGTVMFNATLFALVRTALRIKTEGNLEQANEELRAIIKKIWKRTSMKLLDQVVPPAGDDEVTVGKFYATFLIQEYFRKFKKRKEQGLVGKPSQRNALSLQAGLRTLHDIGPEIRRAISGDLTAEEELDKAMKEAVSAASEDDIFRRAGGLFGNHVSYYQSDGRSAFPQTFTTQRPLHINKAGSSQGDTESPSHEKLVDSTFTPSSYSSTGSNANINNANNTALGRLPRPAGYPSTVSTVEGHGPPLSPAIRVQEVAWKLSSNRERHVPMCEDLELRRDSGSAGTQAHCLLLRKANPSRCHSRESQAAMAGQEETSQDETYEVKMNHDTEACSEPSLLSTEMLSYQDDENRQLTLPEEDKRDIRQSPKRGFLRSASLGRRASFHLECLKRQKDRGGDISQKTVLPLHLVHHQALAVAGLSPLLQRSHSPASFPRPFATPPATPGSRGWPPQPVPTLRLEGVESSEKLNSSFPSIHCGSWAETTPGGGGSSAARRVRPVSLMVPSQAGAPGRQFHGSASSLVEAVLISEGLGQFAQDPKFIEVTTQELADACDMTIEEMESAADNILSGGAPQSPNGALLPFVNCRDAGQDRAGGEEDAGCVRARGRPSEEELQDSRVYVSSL
Chain of Estrogen receptor beta (Q92731 whole entry): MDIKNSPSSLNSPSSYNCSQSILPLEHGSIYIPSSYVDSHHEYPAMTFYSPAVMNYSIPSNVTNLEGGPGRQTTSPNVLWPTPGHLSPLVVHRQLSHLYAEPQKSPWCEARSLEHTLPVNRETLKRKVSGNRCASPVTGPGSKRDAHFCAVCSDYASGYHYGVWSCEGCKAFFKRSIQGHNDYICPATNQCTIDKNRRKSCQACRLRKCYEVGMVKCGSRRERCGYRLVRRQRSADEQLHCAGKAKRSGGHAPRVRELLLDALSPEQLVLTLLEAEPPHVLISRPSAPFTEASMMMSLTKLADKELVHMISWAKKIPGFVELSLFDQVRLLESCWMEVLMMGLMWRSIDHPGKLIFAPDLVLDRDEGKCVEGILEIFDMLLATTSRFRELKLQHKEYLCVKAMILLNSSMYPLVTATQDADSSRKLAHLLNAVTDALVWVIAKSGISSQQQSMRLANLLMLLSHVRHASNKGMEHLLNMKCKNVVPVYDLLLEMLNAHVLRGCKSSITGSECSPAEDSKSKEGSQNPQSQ
Chain of 5-hydroxytryptamine receptor 6 (P50406 whole entry): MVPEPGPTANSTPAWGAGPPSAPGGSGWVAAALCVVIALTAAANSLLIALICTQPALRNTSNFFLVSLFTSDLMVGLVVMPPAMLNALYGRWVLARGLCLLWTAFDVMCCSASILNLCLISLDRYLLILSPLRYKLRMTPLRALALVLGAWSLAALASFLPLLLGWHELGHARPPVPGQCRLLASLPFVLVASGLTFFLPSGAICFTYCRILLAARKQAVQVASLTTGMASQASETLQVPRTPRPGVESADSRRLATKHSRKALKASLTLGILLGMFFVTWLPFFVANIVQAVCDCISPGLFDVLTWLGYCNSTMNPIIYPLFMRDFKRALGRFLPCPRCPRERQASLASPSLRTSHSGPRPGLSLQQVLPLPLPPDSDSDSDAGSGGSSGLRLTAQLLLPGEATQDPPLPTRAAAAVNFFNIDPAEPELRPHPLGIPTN
Chain of Substance-P receptor (P25103 whole entry): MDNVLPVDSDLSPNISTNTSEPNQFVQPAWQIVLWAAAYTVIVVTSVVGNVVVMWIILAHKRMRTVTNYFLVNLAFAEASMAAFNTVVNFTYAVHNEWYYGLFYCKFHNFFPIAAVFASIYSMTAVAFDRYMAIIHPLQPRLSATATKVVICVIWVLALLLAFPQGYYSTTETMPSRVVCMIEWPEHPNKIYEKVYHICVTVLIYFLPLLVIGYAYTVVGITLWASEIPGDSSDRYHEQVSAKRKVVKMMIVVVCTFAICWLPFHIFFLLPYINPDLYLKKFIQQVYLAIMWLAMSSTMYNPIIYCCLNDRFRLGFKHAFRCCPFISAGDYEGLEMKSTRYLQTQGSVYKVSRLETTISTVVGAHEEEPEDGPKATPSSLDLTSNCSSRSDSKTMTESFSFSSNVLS
Chain of Histamine H1 receptor (P35367 whole entry): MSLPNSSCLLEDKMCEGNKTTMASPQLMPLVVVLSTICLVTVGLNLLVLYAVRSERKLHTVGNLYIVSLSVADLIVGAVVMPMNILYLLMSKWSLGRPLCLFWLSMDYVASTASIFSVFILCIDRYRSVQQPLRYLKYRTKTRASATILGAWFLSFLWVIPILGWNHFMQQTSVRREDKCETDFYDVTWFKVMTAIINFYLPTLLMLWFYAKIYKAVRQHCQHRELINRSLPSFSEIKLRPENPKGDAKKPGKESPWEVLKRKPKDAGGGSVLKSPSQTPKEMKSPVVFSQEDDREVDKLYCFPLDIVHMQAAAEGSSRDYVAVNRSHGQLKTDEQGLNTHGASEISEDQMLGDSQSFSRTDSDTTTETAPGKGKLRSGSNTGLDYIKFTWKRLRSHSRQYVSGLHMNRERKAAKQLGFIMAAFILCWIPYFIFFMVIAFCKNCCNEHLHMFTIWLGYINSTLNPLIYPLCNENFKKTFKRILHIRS
Chain of 5-hydroxytryptamine receptor 7 (P34969 whole entry): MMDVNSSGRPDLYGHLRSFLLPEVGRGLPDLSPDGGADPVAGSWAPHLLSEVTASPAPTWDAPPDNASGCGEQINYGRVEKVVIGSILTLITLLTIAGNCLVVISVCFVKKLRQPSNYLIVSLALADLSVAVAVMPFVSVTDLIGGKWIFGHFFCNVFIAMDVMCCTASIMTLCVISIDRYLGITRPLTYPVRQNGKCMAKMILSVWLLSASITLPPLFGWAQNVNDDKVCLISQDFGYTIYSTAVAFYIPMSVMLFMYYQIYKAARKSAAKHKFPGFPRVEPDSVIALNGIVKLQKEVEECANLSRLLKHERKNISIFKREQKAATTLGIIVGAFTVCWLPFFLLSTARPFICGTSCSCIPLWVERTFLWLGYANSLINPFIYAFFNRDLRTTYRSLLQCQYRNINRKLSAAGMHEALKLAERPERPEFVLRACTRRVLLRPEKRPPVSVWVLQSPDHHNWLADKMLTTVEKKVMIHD

C[C@@H](NCCCc1cccc(C(F)(F)F)c1)c1cccc2ccccc12
AC50 (Histamine H1 receptor): > 30 µM

CCN1CCN(Cc2ccc(Nc3ncc(F)c(-c4cc(F)c5nc(C)n(C(C)C)c5c4)n3)nc2)CC1 [ABEMACICLIB]
AC50 (Estrogen receptor [1]): > 30 µM
AC50 (Estrogen receptor [2]): > 30 µM
AC50 (Glucocorticoid receptor [3]): > 30 µM
AC50 (Glucocorticoid receptor [4]): > 30 µM
AC50 [5]: > 50 µM

CCCN(CCC)C(=O)Cc1c(-c2ccc(Cl)cc2)nc2ccc(Cl)cn12 [ALPIDEM]
AC50 [6]: > 10 µM
AC50 [7]: > 10 µM
AC50 [8]: > 10 µM
AC50 [9]: > 10 µM

COc1ccccc1Oc1c(NS(=O)(=O)c2ccc(C(C)(C)C)cc2)nc(-c2ncccn2)nc1OCCO [BOSENTAN]
AC50 (Estrogen receptor beta): > 30 µM
AC50 [7]: > 10 µM
AC50 (Histamine H1 receptor): > 30 µM
AC50 (Glucocorticoid receptor [3]): > 30 µM
AC50 (Glucocorticoid receptor [4]): > 30 µM

COc1cc2nccc(Oc3ccc(NC(=O)C4(C(=O)Nc5ccc(F)cc5)CC4)cc3)c2cc1OC [CABOZANTINIB]
AC50 (Estrogen receptor [1]): > 30 µM
AC50 (Estrogen receptor [2]): > 10 µM
AC50 (Glucocorticoid receptor [3]): > 30 µM
AC50 (Glucocorticoid receptor [4]): > 30 µM
AC50 [5]: > 3 µM

CC(C(=O)O)c1ccc2c(c1)[nH]c1ccc(Cl)cc12 (centres undefined) [CARPROFEN]
AC50 (Glucocorticoid receptor [3]): > 30 µM
AC50 (Glucocorticoid receptor [4]): > 30 µM

COc1ccccc1OCCNCC(O)COc1cccc2[nH]c3ccccc3c12 (centres undefined) [CARVEDILOL]
AC50 [6]: > 10 µM
AC50 (Estrogen receptor beta): > 30 µM
AC50 [7]: > 10 µM
AC50 [8]: 1.25 µM
AC50 [9]: 1.58 µM
AC50 (Substance-P receptor): 0.481 µM

O=C1CCc2cc(OCCCCc3nnnn3C3CCCCC3)ccc2N1 [CILOSTAZOL]
AC50 [10]: > 50 µM
AC50 [5]: > 50 µM

C[C@@H](Oc1cc(-c2cnn(C3CCNCC3)c2)cnc1N)c1c(Cl)ccc(F)c1Cl [CRIZOTINIB]
AC50 [10]: > 30 µM
AC50 (Estrogen receptor [1]): > 30 µM
AC50 (Estrogen receptor [2]): > 30 µM
AC50 (Glucocorticoid receptor [3]): > 30 µM
AC50 (Glucocorticoid receptor [4]): > 30 µM

O=C1CN(/N=C/c2ccc(-c3ccc([N+](=O)[O-])cc3)o2)C(O)=N1 [DANTROLENE]
AC50 [5]: > 50 µM

CC(C)N(CCC(C(N)=O)(c1ccccc1)c1ccccn1)C(C)C (centres undefined) [DISOPYRAMIDE]
AC50 [10]: > 50 µM
AC50 (Estrogen receptor beta): > 30 µM
AC50 (Histamine H1 receptor): > 30 µM
AC50 [5]: > 50 µM

C[C@H]1c2cccc(O)c2C(=O)C2=C(O)[C@]3(O)C(=O)C(C(N)=O)=C(O)[C@@H](N(C)C)[C@@H]3[C@@H](O)[C@@H]21 [DOXYCYCLINE]
AC50 (Substance-P receptor): > 10 µM

OC[C@H]1O[C@@H](c2ccc(Cl)c(Cc3ccc(O[C@H]4CCOC4)cc3)c2)[C@H](O)[C@@H](O)[C@@H]1O [EMPAGLIFLOZIN]
AC50 [5]: > 50 µM

CN1C[C@H](C(=O)N[C@]2(C)O[C@@]3(O)[C@@H]4CCCN4C(=O)[C@H](Cc4ccccc4)N3C2=O)C=C2c3cccc4[nH]cc(c34)C[C@H]21 [ERGOTAMINE]
AC50 (Estrogen receptor [1]): > 30 µM
AC50 (Estrogen receptor [2]): > 30 µM
AC50 (Glucocorticoid receptor [3]): > 30 µM
AC50 (Glucocorticoid receptor [4]): > 30 µM

CC(C)Cc1ccc(C(C)C(=O)O)cc1 (centres undefined) [IBUPROFEN]
AC50 [6]: > 10 µM
AC50 (Estrogen receptor beta): > 30 µM
AC50 [7]: > 10 µM
AC50 [8]: > 10 µM
AC50 [9]: > 10 µM
AC50 (Glucocorticoid receptor [3]): > 30 µM
AC50 (Glucocorticoid receptor [4]): > 30 µM
AC50 (Substance-P receptor): > 10 µM

C=C[C@H]1C[N@@]2CC[C@H]1C[C@@H]2[C@@H](O)c1ccnc2ccc(OC)cc12 [QUINIDINE]
AC50 (Histamine H1 receptor): > 30 µM

CO[C@H]1/C=C/O[C@@]2(C)Oc3c(C)c(O)c4c(O)c(c(/C=N/N5CCN(C)CC5)c(O)c4c3C2=O)NC(=O)/C(C)=C\C=C\[C@H](C)[C@H](O)[C@@H](C)[C@@H](O)[C@@H](C)[C@H](OC(C)=O)[C@@H]1C [RIFAMPIN]
AC50 (Estrogen receptor beta): > 30 µM
AC50 [8]: > 10 µM
AC50 [9]: > 10 µM

CN(C)CCc1c[nH]c2ccc(Cn3cncn3)cc12 [RIZATRIPTAN]
AC50 [6]: > 10 µM
AC50 (Estrogen receptor beta): > 30 µM
AC50 [7]: > 10 µM
AC50 (Histamine H1 receptor): 20 µM
AC50 [8]: > 10 µM
AC50 [9]: > 10 µM
AC50 [5]: > 30 µM
AC50 (Substance-P receptor): > 10 µM

CC(C)c1nc(N(C)S(C)(=O)=O)nc(-c2ccc(F)cc2)c1/C=C/[C@@H](O)C[C@@H](O)CC(=O)O [ROSUVASTATIN]
AC50 (Estrogen receptor [1]): > 30 µM
AC50 (Estrogen receptor [2]): > 30 µM
AC50 (Histamine H1 receptor): > 30 µM
AC50 (Glucocorticoid receptor [3]): > 30 µM
AC50 (Glucocorticoid receptor [4]): > 30 µM

N[C@@H](CC(=O)N1CCn2c(nnc2C(F)(F)F)C1)Cc1cc(F)c(F)cc1F [SITAGLIPTIN]
AC50 [10]: > 50 µM
AC50 [6]: > 10 µM
AC50 (Estrogen receptor [1]): > 30 µM
AC50 (Estrogen receptor [2]): > 30 µM
AC50 [7]: > 10 µM
AC50 [8]: > 10 µM
AC50 [9]: > 10 µM
AC50 (Glucocorticoid receptor [3]): > 30 µM
AC50 (Glucocorticoid receptor [4]): > 30 µM
AC50 [5]: > 150 µM
AC50 (Substance-P receptor): > 10 µM

Nc1ccc(S(=O)(=O)Nc2nccs2)cc1 [SULFATHIAZOLE]
AC50 (Substance-P receptor): > 10 µM

CCN(CC)CCNC(=O)c1c(C)[nH]c(/C=C2\C(=O)Nc3ccc(F)cc32)c1C [SUNITINIB]
AC50 [10]: > 50 µM
AC50 [8]: 2.39 µM
AC50 [9]: > 30 µM
AC50 (Glucocorticoid receptor [4]): > 10 µM

C=CC[C@@H]1/C=C(\C)C[C@H](C)C[C@H](OC)[C@H]2O[C@@](O)(C(=O)C(=O)N3CCCC[C@H]3C(=O)O[C@H](/C(C)=C/[C@@H]3CC[C@@H](O)[C@H](OC)C3)[C@H](C)[C@@H](O)CC1=O)[C@H](C)C[C@@H]2OC [TACROLIMUS ANHYDROUS]
AC50 [10]: > 50 µM
AC50 [6]: > 10 µM
AC50 (Estrogen receptor [1]): > 30 µM
AC50 (Estrogen receptor [2]): > 30 µM
AC50 (Estrogen receptor beta): > 30 µM
AC50 [7]: > 10 µM
AC50 [8]: > 10 µM
AC50 [9]: > 10 µM
AC50 (Glucocorticoid receptor [3]): > 30 µM
AC50 (Glucocorticoid receptor [4]): > 30 µM
AC50 [5]: 45 µM and > 30 µM
AC50 (Substance-P receptor): > 10 µM

COc1cc2nc(N3CCN(C(=O)C4CCCO4)CC3)nc(N)c2cc1OC (centres undefined) [TERAZOSIN]
AC50 (Estrogen receptor beta): > 30 µM
AC50 (Substance-P receptor): > 10 µM

C[C@H](CCC(=O)O)[C@H]1CC[C@H]2[C@@H]3[C@@H](O)C[C@@H]4C[C@H](O)CC[C@]4(C)[C@H]3CC[C@]12C [URSODIOL]
AC50 (Estrogen receptor [1]): > 30 µM
AC50 (Estrogen receptor [2]): > 30 µM

Cc1onc(-c2ccccc2)c1-c1ccc(S(N)(=O)=O)cc1 [VALDECOXIB]
AC50 [6]: > 10 µM
AC50 (Estrogen receptor beta): > 30 µM
AC50 [7]: > 10 µM
AC50 [8]: > 10 µM
AC50 [9]: > 10 µM
AC50 (Substance-P receptor): > 10 µM

CCCC(CCC)C(=O)O [VALPROIC ACID]
AC50 [6]: > 10 µM
AC50 [7]: > 10 µM
AC50 [8]: > 10 µM
AC50 [9]: > 10 µM
AC50 (Substance-P receptor): > 10 µM
